# Reference: patent US7375136B2, “pH-dependent NMDA receptor antagonists” (Emory University, priority 2001, dated 2008)
# Where two headings read alike, the source gives them in different places.
# Key:
# Male Sprague-Dawley rats = assay: Maximal electroshock seizures, duration of tonic hindlimb extension (THE); assay type: in vivo; settings: for Anticonvulsive effects: rat maximal electroshock, summary in words; for THE in drug (% control): rat, mean ± sem
# Excerpt: Methods: Male Sprague-Dawley rats weighing less than 150 gm were used for these experiments. Maximal electroshock seizures were produced by delivering 200 ms biphasic square-wave pulses of 200 mA at 60 Hz via corneal electrodes, using a Wahlquist Constant Current Source (Salt Lake City, Utah). A drop of 0.9% lidocaine in saline was applied to each cornea 30 s before stimulus delivery to minimize pain. Automatic timers recorded the durations of tonic hindlimb flexion, tonic hindlimb extension (THE), clonus and flaccidity that sequentially followed stimulus delivery. The duration of THE was used as an index of seizure severity. Animals were stimulated on three consecutive days, referred to as “control”, “test”, and “recovery”. […] On “test” day, each animal received either vehicle or drug at varying intervals prior to stimulation. Reversibility of drug effect on THE was ascertained by response to stimulation administered one day after the “test” session. The values shown in the table are the mean (±sem) THE duration in the test condition, as a percentage of the mean of control and recovery conditions. Four rats were used for each time point.
# P<0.001 for difference from vehicle by one-way ANOVA with Dunnett's post hoc test. For all other conditions P>0.05.
# NR1-1a/NR2B receptors = NR1-1a/NR2B receptors (Homo sapiens, UniProt Q05586+Q13224); assay: Two electrode voltage clamp of Xenopus oocytes expressing NR1-1a and NR2B NMDA receptor subunits; inhibition of glutamate/glycine current at pH 6.9 and 7.6; assay type: cell-based; settings: for Fold increase in potency between pH 7.6 and 6.9: IC50 at pH 7.6/IC50 at pH 6.9
# Sequence of NR1-1a/NR2B receptors (Q13224 27-1484, other chains not shown): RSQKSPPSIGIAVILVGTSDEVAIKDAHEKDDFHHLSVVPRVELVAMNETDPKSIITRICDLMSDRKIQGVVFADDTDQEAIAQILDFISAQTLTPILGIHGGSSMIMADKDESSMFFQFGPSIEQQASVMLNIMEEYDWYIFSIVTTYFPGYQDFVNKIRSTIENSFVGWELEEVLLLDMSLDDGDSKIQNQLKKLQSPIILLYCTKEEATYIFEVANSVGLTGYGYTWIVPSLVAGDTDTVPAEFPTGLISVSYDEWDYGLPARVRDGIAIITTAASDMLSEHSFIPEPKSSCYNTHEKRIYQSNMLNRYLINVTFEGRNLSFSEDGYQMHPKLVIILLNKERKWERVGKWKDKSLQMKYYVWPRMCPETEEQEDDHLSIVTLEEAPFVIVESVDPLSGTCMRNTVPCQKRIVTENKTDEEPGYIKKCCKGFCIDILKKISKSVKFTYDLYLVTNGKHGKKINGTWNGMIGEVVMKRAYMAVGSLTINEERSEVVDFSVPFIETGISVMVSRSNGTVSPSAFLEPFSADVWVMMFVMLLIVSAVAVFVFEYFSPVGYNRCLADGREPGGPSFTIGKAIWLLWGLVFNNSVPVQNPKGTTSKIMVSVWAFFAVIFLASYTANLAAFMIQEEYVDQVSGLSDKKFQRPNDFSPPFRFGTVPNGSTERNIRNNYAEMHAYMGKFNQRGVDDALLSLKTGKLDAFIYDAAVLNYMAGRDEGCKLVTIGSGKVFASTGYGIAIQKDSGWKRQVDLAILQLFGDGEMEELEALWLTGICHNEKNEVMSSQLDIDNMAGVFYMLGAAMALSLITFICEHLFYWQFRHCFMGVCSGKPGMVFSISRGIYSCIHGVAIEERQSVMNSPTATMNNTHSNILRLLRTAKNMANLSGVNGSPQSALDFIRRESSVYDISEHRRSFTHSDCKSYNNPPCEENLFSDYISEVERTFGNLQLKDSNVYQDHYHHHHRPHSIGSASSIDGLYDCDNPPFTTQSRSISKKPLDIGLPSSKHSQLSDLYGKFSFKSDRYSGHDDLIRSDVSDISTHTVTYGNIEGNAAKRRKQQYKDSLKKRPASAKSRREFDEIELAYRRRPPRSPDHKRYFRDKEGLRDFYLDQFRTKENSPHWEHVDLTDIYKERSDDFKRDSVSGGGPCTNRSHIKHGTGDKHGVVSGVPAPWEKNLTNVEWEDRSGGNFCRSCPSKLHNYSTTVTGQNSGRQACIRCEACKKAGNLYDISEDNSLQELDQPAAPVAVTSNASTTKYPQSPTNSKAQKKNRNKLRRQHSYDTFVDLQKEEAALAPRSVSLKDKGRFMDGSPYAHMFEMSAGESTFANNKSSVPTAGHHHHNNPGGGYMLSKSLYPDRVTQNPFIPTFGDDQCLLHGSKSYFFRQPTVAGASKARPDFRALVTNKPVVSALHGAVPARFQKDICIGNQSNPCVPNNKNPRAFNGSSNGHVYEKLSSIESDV
# Method: Current recordings were obtained using two electrode voltage clamp of Xenopus oocytes injected with cRNA encoding the NR1-1a and NR2B NMDA receptor subunits. Cells were injected with 5-15 ng of cRNA encoding NR1-1a in combination with a 2-3 fold greater amount of either NR2B cRNA. Injected oocytes were maintained at 17° C. in Barths solution containing penicillin (10 U/ml) and streptomycin (10 μg/ml) for 2-6 days, after which recordings were made at room temperature from oocytes continuously perfused in a standard frog Ringers solution. This solution was composed of (in mM): 90 NaCl, 1.0 KCl, 10 Hepes and 0.5 BaCl2. Recording pipettes were filled with 0.3M KCl. Saturating concentrations of glutamate (20-50 μM) and glycine (20 μM) were used to activate the receptor. Drugs were prepared daily from frozen stock solutions in DMSO. Glutamate/glycine-activated currents were typically elicited from a holding potential of −20 to −40 mV. Current signals were digitized and analyzed using custom acquisition software. To study the effects of pH, oocytes were perfused with Ringer's solution at the desired pH until a stable baseline had been reached before subsequent agonist application.
# Oocytes in which the glutamate/glycine current was not stable or in which the baseline holding current drifted were discarded. Inhibition of the glutamate/glycine current by drugs was examined by applying 1-4 different concentrations of the antagonist to each oocyte. […] On average recordings were made from 14 oocytes per condition.
# [1] = Table D, pH 6.9, NR1-1a/NR2B in Xenopus oocytes, read-out: IC50 at pH 6.9
# [2] = Table A, pH 6.9, NR1-1a/NR2B in Xenopus oocytes, read-out: IC50 at pH 6.9
# [3] = Table B, pH 6.9, NR1-1a/NR2B in Xenopus oocytes, read-out: IC50 at pH 6.9
# [4] = 30 mg/kg, 15 min from drug injection to electroshock
# [5] = 30 mg/kg, 60 min from drug injection to electroshock
# [6] = 30 mg/kg, 30 min from drug injection to electroshock
structure (smiles),measurement,setting,value
"CN(CCc1ccc(Cl)c(Cl)c1)CC(O)COc1ccc(NS(C)(=O)=O)cc1.Cl (racemic) [Compound 93, (R,S) 1-(4-methanesulfonamidophenoxy)-3-(N-methyl-3,4-dichlorophenylethylamine)-2-propanol hydrochloride, reference compound]",Anticonvulsive effects,Male Sprague-Dawley rats,Anticonvulsive effects
same,THE in drug (% control),"Male Sprague-Dawley rats; 10 mg/kg, 15 min from drug injection to electroshock",78.2 ± 4.5 % control
same,THE in drug (% control),"Male Sprague-Dawley rats; 10 mg/kg, 30 min from drug injection to electroshock",58.5 ± 11.3 % control
same,THE in drug (% control),"Male Sprague-Dawley rats; 10 mg/kg, 60 min from drug injection to electroshock",62.4 ± 3.9 % control
same,THE in drug (% control),"Male Sprague-Dawley rats; 30 mg/kg, 240 min from drug injection to electroshock",96.2 ± 1.7 % control
OC(CNCCc1ccc(Cl)c(Cl)c1)COc1ccc(OC(F)(F)F)cc1 (racemic) [Compound 93-16],Fold increase in potency between pH 7.6 and 6.9,NR1-1a/NR2B receptors; Table D,4.82
same,IC50,NR1-1a/NR2B receptors; [1],11200 nM
"CN(CCc1ccc(Cl)c(Cl)c1)C[C@H](O)COc1ccc(NS(C)(=O)=O)cc1 [93-2 (S), (S)-1-(4-Methanesulphonamidephenoxy)3-(N-methyl-3,4-dichloro-phenylethylamino)-2-propanol]",Fold increase in potency between pH 7.6 and 6.9,NR1-1a/NR2B receptors; Table A,5.87
same,IC50,NR1-1a/NR2B receptors; [2],63 nM
same,Fold increase in potency between pH 7.6 and 6.9,NR1-1a/NR2B receptors; Table C,5.87
"CS(=O)(=O)Nc1ccc(OC[C@@H](O)CNCCc2ccc(Cl)c(Cl)c2)cc1.Cl [93-4 (S), (S)-1-(4-methanesulfonamideophenoxy)-3-(3,4-dichlorophenylethylamine)-2-propanol hydrochloride]",Fold increase in potency between pH 7.6 and 6.9,NR1-1a/NR2B receptors; Table B,3.54
same,IC50,NR1-1a/NR2B receptors; [3],26 nM
same,Fold increase in potency between pH 7.6 and 6.9,NR1-1a/NR2B receptors; Table C,3.54
same,Fold increase in potency between pH 7.6 and 6.9,NR1-1a/NR2B receptors; Table D,3.54
same,IC50,NR1-1a/NR2B receptors; [1],26 nM
same,Anticonvulsive effects,Male Sprague-Dawley rats,Anticonvulsive effects
same,THE in drug (% control),"Male Sprague-Dawley rats; 3 mg/kg, 15 min from drug injection to electroshock",91.1 ± 2.7 % control
same,THE in drug (% control),"Male Sprague-Dawley rats; 3 mg/kg, 60 min from drug injection to electroshock",109 ± 11.5 % control
same,THE in drug (% control),Male Sprague-Dawley rats; [4],66.6 ± 12.5 % control
same,THE in drug (% control),Male Sprague-Dawley rats; [5],30.8 ± 12.1 % control
"CCN(CCc1ccc(Cl)c(Cl)c1)C[C@H](O)COc1ccc(NS(C)(=O)=O)cc1 [93-5 (S), (S)-1-(4-Methanesulphonamidephenoxy)-3-(N-ethyl-3,4-dichloro-phenylethylamino)-2-propanol]",Fold increase in potency between pH 7.6 and 6.9,NR1-1a/NR2B receptors; Table A,8.00
same,IC50,NR1-1a/NR2B receptors; [2],20 nM
same,Fold increase in potency between pH 7.6 and 6.9,NR1-1a/NR2B receptors; Table C,8.00
"CCCN(CCc1ccc(Cl)c(Cl)c1)C[C@H](O)COc1ccc(NS(C)(=O)=O)cc1 [93-6 (S), (S)-1-(4-Methanesulphonamidephenoxy)3-(N-propyl-3,4-dichloro-phenylethylamino)-2-propanol]",Fold increase in potency between pH 7.6 and 6.9,NR1-1a/NR2B receptors; Table A,6.54
same,IC50,NR1-1a/NR2B receptors; [2],111 nM
same,Fold increase in potency between pH 7.6 and 6.9,NR1-1a/NR2B receptors; Table C,6.54
"CN(c1ccc(OC[C@@H](O)CNCCc2ccc(Cl)c(Cl)c2)cc1)S(C)(=O)=O [93-7 (S), (S)-1-(4-N-methyl-methanesulphonamidephenoxy)-3-(3,4-dichloro-phenylethylamino)-2-propanol]",IC50,NR1-1a/NR2B receptors,2330 nM
same,Fold increase in potency between pH 7.6 and 6.9,NR1-1a/NR2B receptors; Table D,5.51
"CS(=O)(=O)Nc1ccc(OC[C@@H](O)CN(CCO)CCc2ccc(Cl)c(Cl)c2)cc1 [93-8 (S), (S)-1-(4-methanesulphonamidephenoxy)-e-(N-(2-hydroxyethyl)-3,4-dichlorophenylethylamino)-2-propanol]",Fold increase in potency between pH 7.6 and 6.9,NR1-1a/NR2B receptors; Table A,11.3
same,IC50,NR1-1a/NR2B receptors; [2],29 nM
same,Fold increase in potency between pH 7.6 and 6.9,NR1-1a/NR2B receptors; Table C,11.3
same,Anticonvulsive effects,Male Sprague-Dawley rats,Anticonvulsive effects
same,THE in drug (% control),Male Sprague-Dawley rats; [4],91.9 ± 0.4 % control
same,THE in drug (% control),Male Sprague-Dawley rats; [6],85.7 ± 2.8 % control
same,THE in drug (% control),Male Sprague-Dawley rats; [5],59.3 ± 4.1 % control
"CS(=O)(=O)Nc1cccc(OC[C@@H](O)CNCCc2ccc(Cl)c(Cl)c2)c1 [93-9 (S), (S)-1-(3-Methanesulphonamidephenoxy)3-(3,4-dichlorophenylcthyl-amino)-2-propanol]",IC50,NR1-1a/NR2B receptors,208 nM
same,Fold increase in potency between pH 7.6 and 6.9,NR1-1a/NR2B receptors; Table D,8.19
"O=[N+]([O-])c1ccc(OC[C@@H](O)CNCCc2ccc(Cl)c(Cl)c2)cc1 [93-10 (S), (S)-1-(4-Nitrophenoxy)3-(3,4-dichlorophenylethylamino)-2propanol]",IC50,NR1-1a/NR2B receptors,12100 nM
same,Fold increase in potency between pH 7.6 and 6.9,NR1-1a/NR2B receptors; Table D,1.60
"CS(=O)(=O)Nc1ccc(OCC2CN(CCc3ccc(Cl)c(Cl)c3)C(=O)O2)cc1 [93-27 (S), N-(3,4-dichlorophenyl)ethyl-5-(4-methanesulphonamidophenoxy) methyl-oxazolidine-2-one]",Fold increase in potency between pH 7.6 and 6.9,NR1-1a/NR2B receptors; Table B,0.95
same,IC50,NR1-1a/NR2B receptors; [3],338 nM
same,Fold increase in potency between pH 7.6 and 6.9,NR1-1a/NR2B receptors; Table C,0.954
same,THE in drug (% control),Male Sprague-Dawley rats; [4],97.0 ± 0.6 % control
same,THE in drug (% control),Male Sprague-Dawley rats; [6],95.6 ± 1.3 % control
same,THE in drug (% control),Male Sprague-Dawley rats; [5],89.7 ± 0.8 % control
"CC(=O)OC(COc1ccc(NS(C)(=O)=O)cc1)CN(CCc1ccc(Cl)c(Cl)c1)C(C)=O [93-28 (S), 1-(4-Methanesulphonamidophenoxy)-3-(N-acetyl-3,4-dichloro-phenylethylamino)-2-propyl acetate]",Fold increase in potency between pH 7.6 and 6.9,NR1-1a/NR2B receptors; Table A,11.1
same,IC50,NR1-1a/NR2B receptors; [2],1640 nM
"O=S(=O)(Nc1ccc(OCC(O)CNCCc2ccc(Cl)c(Cl)c2)cc1)c1ccccc1 [93-29 (S), 1-(4-benzenesulphonamidophenoxy)-3-(3,4-dichloro-phenylethyl-amino)-2-propanol]",IC50,NR1-1a/NR2B receptors,1160 nM
same,Fold increase in potency between pH 7.6 and 6.9,NR1-1a/NR2B receptors; Table A,18.0
same,Fold increase in potency between pH 7.6 and 6.9,NR1-1a/NR2B receptors; Table D,18.02
"CS(=O)(=O)Nc1ccc(OC[C@@H](O)CN(CCc2ccc(Cl)c(Cl)c2)Cc2ccccc2)cc1 [93-30 (S), (S)-1-(4-Methanesulphonamidephenoxy)-3-(N-benzyl-3,4-dichloro-phenylethylamino)-2-propanol]",Fold increase in potency between pH 7.6 and 6.9,NR1-1a/NR2B receptors; Table A,16.8
same,IC50,NR1-1a/NR2B receptors; [2],70 nM
same,Fold increase in potency between pH 7.6 and 6.9,NR1-1a/NR2B receptors; Table C,16.8
"CCCCN(CCc1ccc(Cl)c(Cl)c1)C[C@H](O)COc1ccc(NS(C)(=O)=O)cc1 [93-31 (S), (S)-1-(4-Methanesulphonamidephenoxy)-3-(N-butyl-3,4-dichloro-phenylethylamino)-2-propanol]",Fold increase in potency between pH 7.6 and 6.9,NR1-1a/NR2B receptors; Table A,51.2
same,IC50,NR1-1a/NR2B receptors; [2],58 nM
same,Fold increase in potency between pH 7.6 and 6.9,NR1-1a/NR2B receptors; Table C,51.2
"CS(=O)(=O)Nc1ccccc1OC[C@@H](O)CNCCc1ccc(Cl)c(Cl)c1 [93-32 (S), 1-(2-Methanesulphonamidephenoxy)-3-(3,4-dichlorophenylethylamino)-2-propanol]",IC50,NR1-1a/NR2B receptors,17900 nM
"CS(=O)(=O)Nc1ccc(OC[C@@H](O)CN(CCc2ccc(Cl)c(Cl)c2)Cc2ccc(F)cc2)cc1 [93-33 (S), (S)-1-(4-Methanesulphonamidephenoxy)-3-(N-(4-fluorobenzyl)-3,4-dichlorophenylethylamino)-2-propanol]",Fold increase in potency between pH 7.6 and 6.9,NR1-1a/NR2B receptors; Table B,0.810
same,IC50,NR1-1a/NR2B receptors; [3],520 nM
"CS(=O)(=O)Nc1ccc(OC[C@@H](O)CN(CCc2ccc(Cl)c(Cl)c2)Cc2cccc(F)c2)cc1 [93-34 (S), (S)-1-(4-Methanesulphonamidephenoxy)-3-(N-(3-fluorobenzyl)-3,4-dichlorophenylethylamino)-2-propanol]",Fold increase in potency between pH 7.6 and 6.9,NR1-1a/NR2B receptors; Table B,4.62
same,IC50,NR1-1a/NR2B receptors; [3],210 nM
"CS(=O)(=O)Nc1ccc(OC[C@@H](O)CN(CCc2ccc(Cl)c(Cl)c2)Cc2ccccc2F)cc1 [93-35 (S), (S)-1-(4-Methanesulphonamidephenoxy)-3-(N-(2-fluorobenzyl)-3,4-dichlorophenylethylamino)-2-propanol]",Fold increase in potency between pH 7.6 and 6.9,NR1-1a/NR2B receptors; Table B,3.60
same,IC50,NR1-1a/NR2B receptors; [3],48 nM
"NC(=O)N1c2ccccc2C=Cc2ccccc21 [Carbamazepine, reference compound]",THE in drug (% control),"Male Sprague-Dawley rats; 40 mg/kg, 30 min from drug injection to electroshock",0.0 ± 0.0 % control
"C[C@@H](CN1CCC(Cc2ccccc2)CC1)[C@@H](O)c1ccc(O)cc1 [Ro256981, reference compound]",Fold increase in potency between pH 7.6 and 6.9,NR1-1a/NR2B receptors; Table B,0.444
same,IC50,NR1-1a/NR2B receptors; [3],18 nM
